Values after ≈ are worked out from the molar mass of the structure shown. Read-outs that look alike come from different tables or passages of the source.
Columns and labels:
[1] = test system: apomorphine-induced stereotypy in rats; assay: Apomorphine-induced stereotypy in rats (APO); format: in vivo, rat; conditions: n.d. = found not active at threshold dose 2.5 mg/kg, or 10 mg/kg if (a)
Procedure: Apomorphine (1.0 mg/kg, i.v.)-induced stereotypy (compulsive sniffing, licking, chewing) was scored every 5 min over the first hour after injection of apomorphine, following a 1 hour interval pre-treatment with the test compound. The score system was: (3) pronounced, (2) moderate, (1) slight, and (0) absent.

[2] = target: T1, Rat recombinant PDE10A (rPDE10A2) (Rattus norvegicus, UniProt Q9QYJ6); assay: In vitro assay PDE10A (SPA, 3H-cAMP); format: biochemical; conditions: Table 3; −log IC50 expressed in mol/L
T1 construct: inferred from metal chelate purification; made in house; host or cells: Sf9 insect cells, baculovirus
T1 sequence (Q9QYJ6 1-794): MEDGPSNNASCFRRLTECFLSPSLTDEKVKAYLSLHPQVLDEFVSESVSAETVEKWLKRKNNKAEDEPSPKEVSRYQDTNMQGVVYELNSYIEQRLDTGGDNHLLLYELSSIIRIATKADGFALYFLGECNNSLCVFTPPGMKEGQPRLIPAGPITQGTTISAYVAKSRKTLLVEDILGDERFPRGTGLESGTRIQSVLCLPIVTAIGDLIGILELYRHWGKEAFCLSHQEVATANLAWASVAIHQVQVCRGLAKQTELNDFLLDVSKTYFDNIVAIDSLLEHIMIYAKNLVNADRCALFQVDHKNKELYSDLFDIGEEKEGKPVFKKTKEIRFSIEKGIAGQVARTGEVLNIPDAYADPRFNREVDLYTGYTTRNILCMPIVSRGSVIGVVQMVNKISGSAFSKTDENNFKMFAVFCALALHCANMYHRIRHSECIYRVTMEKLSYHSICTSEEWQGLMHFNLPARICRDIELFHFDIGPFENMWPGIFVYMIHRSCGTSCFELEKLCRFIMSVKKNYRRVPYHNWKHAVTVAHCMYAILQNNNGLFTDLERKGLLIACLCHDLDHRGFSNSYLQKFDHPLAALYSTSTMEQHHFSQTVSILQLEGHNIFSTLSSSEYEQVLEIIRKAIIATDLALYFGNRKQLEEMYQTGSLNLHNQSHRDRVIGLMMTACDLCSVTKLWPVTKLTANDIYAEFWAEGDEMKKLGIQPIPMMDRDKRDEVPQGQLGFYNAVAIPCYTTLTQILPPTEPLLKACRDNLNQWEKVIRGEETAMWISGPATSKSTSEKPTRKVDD
Procedure: Rat recombinant PDE10A (rPDE10A2) was expressed in Sf9 cells using a recombinant rPDE10A baculovirus construct. Cells were harvested after 48 h of infection and the rPDE10A protein was purified by metal chelate chromatography on Ni-sepharose 6FF. Tested compounds were dissolved and diluted in 100% DMSO to a concentration 100 fold of the final concentration in the assay. […] 10 μl of rPDE10A enzyme in incubation buffer was added and the reaction was started by addition of 10 μl substrate to a final concentration of 60 nM cAMP and 0.008 μCi ^3H-cAMP. The reaction was incubated for 60 minutes at room temperature. […] After sedimentation of the beads during 30 minutes the radioactivity was measured in a Perkin Elmer Topcount scintillation counter and results were expressed as cpm. For blanc values the enzyme was omitted from the reaction and replaced by incubation buffer. Control values were obtained by addition of a final concentration of 1% DMSO instead of compound. The same assay principle is applied for the measurement of the affinity of the compound for other members of the PDE family with appropriate modifications in incubation buffer, substrate concentration, incubation time and stop solution.

[3] = Intrinsic dissolution rate (IDR) of miniaturized pellets; format: physicochemical; conditions: 37.0±0.5° C.; for Average IDR: 0.01M HCl at 100 rpm, miniaturized pellets; for intrinsic dissolution rate (IDR): pellets of 0.0754 cm^2
Procedure: The intrinsic dissolution rate was measured using a DISS Profiler™ system consisting in both a mini-bath and UV fiber optic (5 mm pathlength) probes connected to a photodiode array (PDA) spectrophotometer (from pION Inc). Each pellet prepared were positioned in individual vessels. The intrinsic dissolution test was performed using 0.01 M HCl (20 mL) maintained at 37.0±0.5° C. with a stirring rate of 100 rpm. The concentration measurements were performed using UV detection at 326 nm. The intrinsic dissolution rate (IDR) was calculated by dividing the dissolution rate by the exposure area of pellet (0.0754 cm^2).

[4] = test system: novel object recognition in female hooded-Lister rats; assay: Object recognition test (NOR), sub-chronic PCP; format: in vivo, rat; conditions: for effects of acute treatment in the NOR task: compound 1 0.3-1.0 mg/kg, PQ10 1.0 mg/kg, oral, 30 min prior to testing
Procedure: 60 female hooded-Lister rats (Charles River, UK) were used as subjects for these studies and weighed 248 g±20 g. Rats were allowed at least a 7-day acclimatization period to the animal unit prior to commencement of experimentation. Rats were housed in groups of 5 under standard laboratory conditions under a 12 h light:dark cycle, lights on at 0700 h. All testing was carried out in the light phase. Food and water were freely provided. All experiments were conducted in accordance with the Animals Scientific Procedures Act, U.K. 1986 and were approved by the University of Bradford ethical review panel.
40 mg of test compound was dissolved in 5 ml of 40% hydroxypropyl β-cyclodextrin (HPBC) solution. The solution was sonicated until completely dissolved. 2 ml of sterile water was added and the pH measured and adjusted with NaOH solution (0.1N) to obtain pH ˜4. Finally, sterile water was added to a final volume of 10 ml. This stock solution was then diluted in 20% HPBC to obtain the final concentrations.
100 mg of PQ10 was dissolved in a 40% HPBC solution and 8 mg of tartaric acid. The solution was sonicated until completely dissolved. 5 ml of sterile water was added and the pH measured and adjusted with NaOH solution (0.1N) to obtain pH ˜4. Finally sterile water was added to a final volume of 10 ml.
Test compound was administered at doses of 0.3 and 1.0 mg/kg via the oral route 30 min prior to testing.
PQ10 was administered at a dose of 1.0 mg/kg via the oral route 30 min prior to testing.
Certain pre-clinical tests allow the observation of relatively subtle cognitive deficits in the rat that resemble cognitive symptoms in subjects with schizophrenia. The cognitive deficits observed are seen in behaviours such as episodic memory, which can be measured by recognition tasks such as the novel object recognition (NOR) paradigm. A recognition memory task allows the comparison between presented stimuli and previously stored information. […] Object recognition in rats can be measured as the difference in time spent exploring the familiar and the new object. […]

[5] = Adsorption-desorption (dynamic vapor sorption); format: physicochemical; conditions: for weight loss during the initial drying step: 60 min. under dry nitrogen at 25° C.; for hygroscopic behavior / physical form during the DVS test: DVS, 25° C., RH 0-95%
[6] = Solubility as a function of pH at 20° C.; format: physicochemical
Procedure: After removing the undissolved compound (0.45 μm Millex LCR filter), the concentration in the solution was determined using UV spectrometry. The pH of the solution was measured.

For `COCCOc1cncc(-c2c(C)nc3c(-c4ccncc4)ccnn23)c1` [Compound 149, 3-[5-(2-methoxyethoxy)-3-pyridinyl]-2-methyl-8-(4-pyridinyl)-imidazo[1,2-b]pyridazine], the “APO ED50 (mg/kg)” value [1] was “n.d. (n.d. means the compound was found not active at 2.5 or at 10 mg/kg (the latter being indicated as (a)), taken as threshold value, and was not further tested.)” and the “PDE10A2 pIC50” value [2] was 6.82.

With `COCCc1ccc(-c2c(C)nc3c(N4CCOCC4)ccnn23)cn1.O` [Compound 1c, 3-[6-(2-methoxyethyl)-3-pyridinyl]-2-methyl-8-(4-morpholinyl)-imidazo[1,2-b]pyridazine monohydrate] the “Average IDR” value [3] was 1.1011 mg · min^−1 · cm^−2 and the “intrinsic dissolution rate (IDR)” value ([3]; 0.01 M HCl, 100 rpm) was 1.10 mg·min^−1·cm^−2.

In the case of `COCCc1ccc(-c2c(C)nc3c(N4CCOCC4)ccnn23)cn1` [Compound 1, 3-[6-(2-methoxyethyl)-3-pyridinyl]-2-methyl-8-(4-morpholinyl)-imidazo[1,2-b]pyridazine], the “effects of acute treatment in the NOR task” value [4] is reported as “selective for the retention phase of the NOR task”, the “Average IDR” value [3] is reported as 0.8170 mg · min^−1 · cm^−2 and the “intrinsic dissolution rate (IDR)” value ([3]; 0.01 M HCl, 100 rpm) is reported as 0.82 mg·min^−1·cm^−2. The “weight loss during the initial drying step” value [5] was 0.06%, the hygroscopic behavior [5] was “no hygroscopic behavior” and the “physical form during the DVS test” value [5] was “remained the same physical form”. For the same molecule, the solubility ([6]; aqueous buffer, thermodynamic from solid, borate-KCl—NaOH buffer pH 9, pH of solution 8.9, anhydrous free base) was 0.009 mg/mL (≈ 25.5 µM), the solubility ([6]; aqueous buffer, thermodynamic from solid, citrate-NaOH buffer pH 5, pH of solution 5.0, anhydrous free base) was 0.012 mg/mL (≈ 34 µM) and the solubility ([6]; aqueous buffer, thermodynamic from solid, citrate-NaOH—HCl buffer pH 2, pH of solution 2.9, anhydrous free base) was 0.61 mg/mL (≈ 1730 µM). For the same molecule, the solubility ([6]; aqueous buffer, thermodynamic from solid, phosphate buffer pH 7, pH of solution 7.0, anhydrous free base) was 0.008 mg/mL (≈ 22.6 µM), the solubility ([6]; aqueous buffer, thermodynamic from solid, phosphate-NaOH buffer pH 12, pH of solution 11.9, anhydrous free base) was 0.008 mg/mL (≈ 22.6 µM) and the solubility ([6]; pH 2.5, simulated gastric fluid, thermodynamic from solid, 0.1N HCl, pH of solution 2.5, anhydrous free base) was 2.5 mg/mL (≈ 7070 µM). For the same molecule, the solubility ([6]; pH 3, simulated gastric fluid, thermodynamic from solid, 0.01N HCl, pH of solution 3.0, anhydrous free base) was 0.32 mg/mL (≈ 905 µM), the solubility ([6]; pH 8.7, thermodynamic from solid, water, pH of solution 8.7, anhydrous free base) was 0.009 mg/mL (≈ 25.5 µM) and the solubility ([6]; pH 12.9, aqueous buffer, thermodynamic from solid, 0.1N NaOH, pH of solution 12.9, anhydrous free base) was 0.008 mg/mL (≈ 22.6 µM).

For `COCCc1ccc(-c2c(C)nc3c(N4CCOCC4)ccnn23)cn1.O=P(O)(O)O` [Compound 1d, 3-[6-(2-methoxyethyl)-3-pyridinyl]-2-methyl-8-(4-morpholinyl)-imidazo[1,2-b]pyridazine phosphate], the “Average IDR” value [3] was 2.5172 mg · min^−1 · cm^−2, the “time until pellets were totally dissolved” value ([3]; 0.01 M HCl, 100 rpm) was at most 10 min and the “intrinsic dissolution rate (IDR)” value ([3]; 0.01 M HCl, 100 rpm) was 2.52 mg·min^−1·cm^−2. For the same molecule, the “weight loss during the initial drying step” value [5] was 0.3%, the hygroscopic behavior [5] was “no hygroscopic behavior” and the “physical form during the DVS test” value [5] was “remains crystalline”. It also gave a solubility ([6]; aqueous buffer, thermodynamic from solid, borate-KCl—NaOH buffer pH 9, pH of solution 7.4, phosphate salt, read-out: Solubility (mg/mL) of compound 1d) of 0.1 mg/mL, a solubility ([6]; aqueous buffer, thermodynamic from solid, citrate-NaOH buffer pH 5, pH of solution 4.9, phosphate salt, read-out: Solubility (mg/mL) of compound 1d) of 0.14 mg/mL and a solubility ([6]; aqueous buffer, thermodynamic from solid, citrate-NaOH—HCl buffer pH 2, pH of solution 2.5, phosphate salt, read-out: Solubility (mg/mL) of compound 1d) of 20.2 mg/mL. The solubility ([6]; aqueous buffer, thermodynamic from solid, phosphate buffer pH 7, pH of solution 6.8, phosphate salt, read-out: Solubility (mg/mL) of compound 1d) was 0.09 mg/mL, the solubility ([6]; aqueous buffer, thermodynamic from solid, phosphate-NaOH buffer pH 12, pH of solution 11.2, phosphate salt, read-out: Solubility (mg/mL) of compound 1d) was 0.1 mg/mL and the “solubility compared to the anhydrous free base form (compound 1)” value ([6]; in vitro results) was “much higher solubility”. For the same molecule, the solubility ([6]; pH 2.1, simulated gastric fluid, thermodynamic from solid, 0.1N HCl, pH of solution 2.1, phosphate salt, read-out: Solubility (mg/mL) of compound 1d) was 46 mg/mL, the solubility ([6]; pH 2.5, simulated gastric fluid, thermodynamic from solid, 0.01N HCl, pH of solution 2.5, phosphate salt, read-out: Solubility (mg/mL) of compound 1d) was 11.9 mg/mL and the solubility ([6]; pH 2.6, thermodynamic from solid, water, pH of solution 2.6, phosphate salt, read-out: Solubility (mg/mL) of compound 1d) was 9.7 mg/mL. It also gave a solubility ([6]; pH 12.5, aqueous buffer, thermodynamic from solid, 0.1N NaOH, pH of solution 12.5, phosphate salt, read-out: Solubility (mg/mL) of compound 1d) of 0.1 mg/mL.

For `COc1cc2ncnc(N3CC[C@@H](Oc4cnc5ccccc5n4)C3)c2cc1OC` [PQ10], the “T2(A) exploration time of familiar object, retention trial” value ([4]; PCP + 1 mg/kg p.o., mean) was 7.9 s and the “effects of acute treatment in the NOR task” value [4] was “selective for the retention phase of the NOR task”.
